The target of assay [1] is T1, Peroxisome proliferator-activated receptor alpha (Homo sapiens, UniProt Q07869).
T1 sequence (Q07869 whole entry): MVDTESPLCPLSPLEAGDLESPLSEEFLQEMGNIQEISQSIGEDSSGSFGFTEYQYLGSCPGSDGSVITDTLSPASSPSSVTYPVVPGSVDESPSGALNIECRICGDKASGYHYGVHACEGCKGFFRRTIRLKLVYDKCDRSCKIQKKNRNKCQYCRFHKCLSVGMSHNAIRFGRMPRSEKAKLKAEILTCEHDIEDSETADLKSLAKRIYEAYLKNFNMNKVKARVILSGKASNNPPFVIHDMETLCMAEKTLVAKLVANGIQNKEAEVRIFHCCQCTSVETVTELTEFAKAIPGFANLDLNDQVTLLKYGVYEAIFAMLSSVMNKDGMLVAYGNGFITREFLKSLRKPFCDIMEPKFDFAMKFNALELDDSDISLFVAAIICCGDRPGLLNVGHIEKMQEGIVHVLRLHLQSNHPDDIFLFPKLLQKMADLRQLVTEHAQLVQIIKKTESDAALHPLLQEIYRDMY
The assay is described as follows: Transactivation of GAL4-fused Homo sapiens (human) PPARalpha […] expressed in African green monkey CV1 cells by luciferase reporter gene assay. It counts as cell-based, CV-1. A general note: A reporter such as luciferase makes a cellular process visible.

Assay [2] concerns the target T2, Peroxisome proliferator-activated receptor gamma (Homo sapiens, UniProt P37231).
T2 sequence (P37231 whole entry): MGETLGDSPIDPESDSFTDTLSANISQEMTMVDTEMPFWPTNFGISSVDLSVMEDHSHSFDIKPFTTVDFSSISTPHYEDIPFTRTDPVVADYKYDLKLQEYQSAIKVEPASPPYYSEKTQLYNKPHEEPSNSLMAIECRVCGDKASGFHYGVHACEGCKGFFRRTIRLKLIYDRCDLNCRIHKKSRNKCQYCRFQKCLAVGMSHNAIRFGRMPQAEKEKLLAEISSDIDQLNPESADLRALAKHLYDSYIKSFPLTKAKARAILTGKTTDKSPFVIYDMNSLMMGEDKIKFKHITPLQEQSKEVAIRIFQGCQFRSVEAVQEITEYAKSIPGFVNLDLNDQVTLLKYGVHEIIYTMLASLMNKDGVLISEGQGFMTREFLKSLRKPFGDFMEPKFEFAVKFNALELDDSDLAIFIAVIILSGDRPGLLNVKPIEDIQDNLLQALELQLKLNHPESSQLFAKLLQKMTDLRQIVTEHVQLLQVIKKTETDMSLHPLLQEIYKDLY
In kind it is cell-based, CV-1.
Description: Transactivation of GAL4-fused Homo sapiens (human) PPARgamma DNA binding domain expressed in African green monkey CV1 cells by luciferase reporter gene assay

Structures are written as SMILES.

With `CCO[C@@H](Cc1ccc(OC/C=C(/c2ccccc2)c2ccc(F)cc2)cc1)C(=O)O`, the EC50 in assay [1] (read-out: pEC50 (converted)) is 3160 nM.
With `Cc1oc(-c2ccccc2)nc1CCOc1ccc(C[C@@](O)(C(=O)O)c2ccccc2C(=O)c2ccccc2)cc1`, the EC50 was found to be 457 nM in assay [1] (read-out: EC50) and 0.34 nM in assay [2].
The compound `Cc1oc(-c2ccccc2)nc1CCOc1ccc(C[C@]2(C(=O)O)C=CC=CO2)cc1` showed an EC50 in assay [2] of 20 nM.
`COC(=O)c1ccccc1[C@@](O)(Cc1ccc(OCCc2nc(-c3ccccc3)oc2C)cc1)C(=O)O`: the EC50 is 3500 nM in assay [1] (read-out: EC50) and 0.71 nM in assay [2].
In the case of `Cc1oc(-c2ccccc2)nc1CCOc1ccc(C[C@@]2(C(=O)O)CCOCCO2)cc1`, the EC50 in assay [1] (read-out: EC50) is 6900 nM; in assay [2] it was 24 nM.
On the same counts, the results for `Cc1sc(-c2ccccc2)nc1CCOc1ccc(C[C@@](O)(C(=O)O)c2ccccc2C(=O)c2ccccc2)cc1` are 1050 nM and 0.1 nM.
Take `CCO[C@@H](Cc1ccc(OC/C=C(/c2ccccc2)c2ccc(-c3ccccc3)cc2)cc1)C(=O)O`: the EC50 in assay [1] (read-out: pEC50 (converted)) was 692 nM.
For the compound `Cc1sc(N2CCN(C)CC2)nc1CCOc1ccc(C[C@@](O)(C(=O)O)c2ccccc2C(=O)c2ccccc2)cc1`, the values for the EC50 in assay [1] (read-out: EC50) and in assay [2] were 6460 nM and 1.29 nM, respectively.

Source of the values: ChEMBL document CHEMBL3046028, “3D-QSAR study of tyrosine and propanoic acid derivatives as PPAR/ dual agonists using CoMSIA” (Med Chem Res, 2013).
